The subject of one data set is Erythrocyte. Description: Hemolytic activity in human erythrocyte incubated for 70 mins by absorbance based assay. It is filed as toxicity, cell-based. The note with it: 1.167 h.
The next data set has as its system Escherichia coli. As to the kind of experiment: Antibacterial activity against Escherichia coli ATCC 25922 assessed as reduction in bacterial cell growth incubated for 16 to 24 hrs by CLSI-protocol based Mueller-Hinton Broth micro-dilution method. The note with it: time 16-24 hrs. It is filed as functional. (In general: Dilution methods test growth across graded concentrations, often in twofold steps.)

The next data set deals with Bacillus subtilis. Description: Antibacterial activity against Bacillus subtilis ATCC 23857 assessed as reduction in bacterial cell growth incubated for 16 to 24 hrs by CLSI-protocol based Mueller-Hinton Broth micro-dilution method. It is filed as functional. The note with it: time 16-24 hrs.
A further data set deals with Pseudomonas aeruginosa. As to the kind of experiment: Antibacterial activity against Pseudomonas aeruginosa ATCC 27853 assessed as reduction in bacterial cell growth incubated for 16 to 24 hrs by CLSI-protocol based Mueller-Hinton Broth micro-dilution method. It counts as functional. As to conditions: time 16-24 hrs.
The subject of another data set is Staphylococcus aureus. Description: Antibacterial activity against Staphylococcus aureus ATCC 25923 assessed as reduction in bacterial cell growth incubated for 16 to 24 hrs by CLSI-protocol based Mueller-Hinton Broth micro-dilution method. It counts as functional. The note with it: time 16-24 hrs.
For the next data set, the system named is Klebsiella pneumoniae. Description: Antibacterial activity against Klebsiella pneumoniae ATCC 700603 assessed as reduction in bacterial cell growth incubated for 16 to 24 hrs by CLSI-protocol based Mueller-Hinton Broth micro-dilution method. It counts as functional. The note with it: time 16-24 hrs.

The structures appear in SMILES notation. In brackets after ≈: the same amount, converted by molar mass. Bridge positions count the residues as written; N and C are the ends. Peptide text beside a SMILES is read from it. I, II: the chains in the order shown. * marks the point of attachment. Lauroyl = CCCCCCCCCCCC(=O)*; Decanoyl = CCCCCCCCCC(=O)*; Octanoyl = CCCCCCCC(=O)*; Hexanoyl = CCCCCC(=O)*; Butyryl = CCCC(=O)*

As for `CCCC(=O)NCC(=O)N[C@@H](CC(C)C)C(=O)N[C@@H](CC(C)C)C(=O)N[C@@H](CCCCN)C(=O)N[C@@H](CCCNC(=N)N)C(=O)N[C@H](C(=O)N[C@@H](CCCCN)C(=O)N[C@H](C(=O)N[C@@H](CC(C)C)C(=O)N[C@@H](CC(C)C)C(=O)NCCCC[C@H](NC(=O)[C@H](CCCCNC(=O)[C@H](CC(C)C)NC(=O)[C@H](CC(C)C)NC(=O)[C@@H](NC(=O)[C@H](CCCCN)NC(=O)[C@@H](NC(=O)[C@H](CCCNC(=N)N)NC(=O)[C@H](CCCCN)NC(=O)[C@H](CC(C)C)NC(=O)[C@H](CC(C)C)NC(=O)CNC(=O)CCC)[C@@H](C)CC)[C@@H](C)O)NC(=O)[C@H](CC(C)C)NC(=O)[C@H](CC(C)C)NC(=O)[C@@H](NC(=O)[C@H](CCCCN)NC(=O)[C@@H](NC(=O)[C@H](CCCNC(=N)N)NC(=O)[C@H](CCCCN)NC(=O)[C@H](CC(C)C)NC(=O)[C@H](CC(C)C)NC(=O)CNC(=O)CCC)[C@@H](C)CC)[C@@H](C)O)C(N)=O)[C@@H](C)O)[C@@H](C)CC` (I: Butyryl-GLLKRIKTLLKK-NH2 / II: Butyryl-GLLKRIKTLL / III: Butyryl-GLLKRIKTLL; amide I:11-III:C, I:12-II:C) [listing 1 of 2 here], the HC10 in the data set on Erythrocyte came to 3.18 µM.

As a reminder, the MIC is the smallest concentration in the dilution series that meets the test's criterion for growth inhibition. In the case of `CCCC(=O)NCC(=O)N[C@@H](CC(C)C)C(=O)N[C@@H](CC(C)C)C(=O)N[C@@H](CCCCN)C(=O)N[C@@H](CCCNC(=N)N)C(=O)N[C@H](C(=O)N[C@@H](CCCCN)C(=O)N[C@H](C(=O)N[C@@H](CC(C)C)C(=O)N[C@@H](CC(C)C)C(=O)NCCCC[C@H](NC(=O)[C@H](CCCCNC(=O)[C@H](CC(C)C)NC(=O)[C@H](CC(C)C)NC(=O)[C@@H](NC(=O)[C@H](CCCCN)NC(=O)[C@@H](NC(=O)[C@H](CCCNC(=N)N)NC(=O)[C@H](CCCCN)NC(=O)[C@H](CC(C)C)NC(=O)[C@H](CC(C)C)NC(=O)CNC(=O)CCC)[C@@H](C)CC)[C@@H](C)O)NC(=O)[C@H](CC(C)C)NC(=O)[C@H](CC(C)C)NC(=O)[C@@H](NC(=O)[C@H](CCCCN)NC(=O)[C@@H](NC(=O)[C@H](CCCNC(=N)N)NC(=O)[C@H](CCCCN)NC(=O)[C@H](CC(C)C)NC(=O)[C@H](CC(C)C)NC(=O)CNC(=O)CCC)[C@@H](C)CC)[C@@H](C)O)C(N)=O)[C@@H](C)O)[C@@H](C)CC` (I: Butyryl-GLLKRIKTLLKK-NH2 / II: Butyryl-GLLKRIKTLL / III: Butyryl-GLLKRIKTLL; amide I:11-III:C, I:12-II:C) [listing 2 of 2 here], the MIC turned out to be 4 µM (≈ 15.6 µg/mL) in the data set on Escherichia coli; 4 µM (≈ 15.6 µg/mL) with Bacillus subtilis; 2 µM (≈ 7.79 µg/mL) in the data set on Pseudomonas aeruginosa; 4 µM (≈ 15.6 µg/mL) in the data set on Staphylococcus aureus; 4 µM (≈ 15.6 µg/mL) in the data set with Klebsiella pneumoniae.

For the compound `CCCCCCCCCC(=O)NCC(=O)N[C@@H](CC(C)C)C(=O)N[C@@H](CC(C)C)C(=O)N[C@@H](CCCCN)C(=O)N[C@@H](CCCNC(=N)N)C(=O)N[C@H](C(=O)N[C@@H](CCCCN)C(=O)N[C@H](C(=O)N[C@@H](CC(C)C)C(=O)N[C@@H](CC(C)C)C(=O)NCCCC[C@H](NC(=O)[C@H](CCCCNC(=O)[C@H](CC(C)C)NC(=O)[C@H](CC(C)C)NC(=O)[C@@H](NC(=O)[C@H](CCCCN)NC(=O)[C@@H](NC(=O)[C@H](CCCNC(=N)N)NC(=O)[C@H](CCCCN)NC(=O)[C@H](CC(C)C)NC(=O)[C@H](CC(C)C)NC(=O)CNC(=O)CCCCCCCCC)[C@@H](C)CC)[C@@H](C)O)NC(=O)[C@H](CC(C)C)NC(=O)[C@H](CC(C)C)NC(=O)[C@@H](NC(=O)[C@H](CCCCN)NC(=O)[C@@H](NC(=O)[C@H](CCCNC(=N)N)NC(=O)[C@H](CCCCN)NC(=O)[C@H](CC(C)C)NC(=O)[C@H](CC(C)C)NC(=O)CNC(=O)CCCCCCCCC)[C@@H](C)CC)[C@@H](C)O)C(N)=O)[C@@H](C)O)[C@@H](C)CC` (I: Decanoyl-GLLKRIKTLLKK-NH2 / II: Decanoyl-GLLKRIKTLL / III: Decanoyl-GLLKRIKTLL; amide I:11-III:C, I:12-II:C), the MIC with Escherichia coli is 128 µM (≈ 531 µg/mL); in the data set with Bacillus subtilis it was 56 µM (≈ 232 µg/mL); in the data set with Pseudomonas aeruginosa, 32 µM (≈ 133 µg/mL); in the data set on Staphylococcus aureus, 128 µM (≈ 531 µg/mL); in the data set on Klebsiella pneumoniae it was 32 µM (≈ 133 µg/mL).

As for `CC[C@H](C)[C@H](NC(=O)[C@H](CCCNC(=N)N)NC(=O)[C@H](CCCCN)NC(=O)[C@H](CC(C)C)NC(=O)[C@H](CC(C)C)NC(=O)CN)C(=O)N[C@@H](CCCCN)C(=O)N[C@H](C(=O)N[C@@H](CC(C)C)C(=O)N[C@@H](CC(C)C)C(=O)NCCCC[C@H](NC(=O)[C@H](CCCCNC(=O)[C@H](CC(C)C)NC(=O)[C@H](CC(C)C)NC(=O)[C@@H](NC(=O)[C@H](CCCCN)NC(=O)[C@@H](NC(=O)[C@H](CCCNC(=N)N)NC(=O)[C@H](CCCCN)NC(=O)[C@H](CC(C)C)NC(=O)[C@H](CC(C)C)NC(=O)CN)[C@@H](C)CC)[C@@H](C)O)NC(=O)[C@H](CC(C)C)NC(=O)[C@H](CC(C)C)NC(=O)[C@@H](NC(=O)[C@H](CCCCN)NC(=O)[C@@H](NC(=O)[C@H](CCCNC(=N)N)NC(=O)[C@H](CCCCN)NC(=O)[C@H](CC(C)C)NC(=O)[C@H](CC(C)C)NC(=O)CN)[C@@H](C)CC)[C@@H](C)O)C(N)=O)[C@@H](C)O` (I: H-GLLKRIKTLLKK-NH2 / II: H-GLLKRIKTLL / III: H-GLLKRIKTLL; amide I:11-III:C, I:12-II:C), the MIC in the data set on Escherichia coli turned out to be 8 µM (≈ 29.5 µg/mL); in the data set with Bacillus subtilis, 4 µM (≈ 14.7 µg/mL); with Pseudomonas aeruginosa, 4 µM (≈ 14.7 µg/mL); in the data set with Staphylococcus aureus, 4 µM (≈ 14.7 µg/mL); with Klebsiella pneumoniae, 4 µM (≈ 14.7 µg/mL).

Turning to `CCCCCC(=O)NCC(=O)N[C@@H](CC(C)C)C(=O)N[C@@H](CC(C)C)C(=O)N[C@@H](CCCCN)C(=O)N[C@@H](CCCNC(=N)N)C(=O)N[C@H](C(=O)N[C@@H](CCCCN)C(=O)N[C@H](C(=O)N[C@@H](CC(C)C)C(=O)N[C@@H](CC(C)C)C(=O)NCCCC[C@H](NC(=O)[C@H](CCCCNC(=O)[C@H](CC(C)C)NC(=O)[C@H](CC(C)C)NC(=O)[C@@H](NC(=O)[C@H](CCCCN)NC(=O)[C@@H](NC(=O)[C@H](CCCNC(=N)N)NC(=O)[C@H](CCCCN)NC(=O)[C@H](CC(C)C)NC(=O)[C@H](CC(C)C)NC(=O)CNC(=O)CCCCC)[C@@H](C)CC)[C@@H](C)O)NC(=O)[C@H](CC(C)C)NC(=O)[C@H](CC(C)C)NC(=O)[C@@H](NC(=O)[C@H](CCCCN)NC(=O)[C@@H](NC(=O)[C@H](CCCNC(=N)N)NC(=O)[C@H](CCCCN)NC(=O)[C@H](CC(C)C)NC(=O)[C@H](CC(C)C)NC(=O)CNC(=O)CCCCC)[C@@H](C)CC)[C@@H](C)O)C(N)=O)[C@@H](C)O)[C@@H](C)CC` (I: Hexanoyl-GLLKRIKTLLKK-NH2 / II: Hexanoyl-GLLKRIKTLL / III: Hexanoyl-GLLKRIKTLL; amide I:11-III:C, I:12-II:C), the MIC in the data set with Escherichia coli came out at 16 µM (≈ 63.6 µg/mL); in the data set with Bacillus subtilis, 8 µM (≈ 31.8 µg/mL); with Pseudomonas aeruginosa it was 8 µM (≈ 31.8 µg/mL); in the data set on Staphylococcus aureus it was 16 µM (≈ 63.6 µg/mL); in the data set with Klebsiella pneumoniae, 32 µM (≈ 127 µg/mL).

For `CCCCCCCCCCCC(=O)NCC(=O)N[C@@H](CC(C)C)C(=O)N[C@@H](CC(C)C)C(=O)N[C@@H](CCCCN)C(=O)N[C@@H](CCCNC(=N)N)C(=O)N[C@H](C(=O)N[C@@H](CCCCN)C(=O)N[C@H](C(=O)N[C@@H](CC(C)C)C(=O)N[C@@H](CC(C)C)C(=O)NCCCC[C@H](NC(=O)[C@H](CCCCNC(=O)[C@H](CC(C)C)NC(=O)[C@H](CC(C)C)NC(=O)[C@@H](NC(=O)[C@H](CCCCN)NC(=O)[C@@H](NC(=O)[C@H](CCCNC(=N)N)NC(=O)[C@H](CCCCN)NC(=O)[C@H](CC(C)C)NC(=O)[C@H](CC(C)C)NC(=O)CNC(=O)CCCCCCCCCCC)[C@@H](C)CC)[C@@H](C)O)NC(=O)[C@H](CC(C)C)NC(=O)[C@H](CC(C)C)NC(=O)[C@@H](NC(=O)[C@H](CCCCN)NC(=O)[C@@H](NC(=O)[C@H](CCCNC(=N)N)NC(=O)[C@H](CCCCN)NC(=O)[C@H](CC(C)C)NC(=O)[C@H](CC(C)C)NC(=O)CNC(=O)CCCCCCCCCCC)[C@@H](C)CC)[C@@H](C)O)C(N)=O)[C@@H](C)O)[C@@H](C)CC` (I: Lauroyl-GLLKRIKTLLKK-NH2 / II: Lauroyl-GLLKRIKTLL / III: Lauroyl-GLLKRIKTLL; amide I:11-III:C, I:12-II:C), the MIC in the data set on Escherichia coli worked out at 64 µM (≈ 271 µg/mL); in the data set on Bacillus subtilis, 256 µM (≈ 1080 µg/mL); in the data set with Pseudomonas aeruginosa, 64 µM (≈ 271 µg/mL); with Staphylococcus aureus, 64 µM (≈ 271 µg/mL); with Klebsiella pneumoniae, 64 µM (≈ 271 µg/mL).

On to `CCCCCCCC(=O)NCC(=O)N[C@@H](CC(C)C)C(=O)N[C@@H](CC(C)C)C(=O)N[C@@H](CCCCN)C(=O)N[C@@H](CCCNC(=N)N)C(=O)N[C@H](C(=O)N[C@@H](CCCCN)C(=O)N[C@H](C(=O)N[C@@H](CC(C)C)C(=O)N[C@@H](CC(C)C)C(=O)NCCCC[C@H](NC(=O)[C@H](CCCCNC(=O)[C@H](CC(C)C)NC(=O)[C@H](CC(C)C)NC(=O)[C@@H](NC(=O)[C@H](CCCCN)NC(=O)[C@@H](NC(=O)[C@H](CCCNC(=N)N)NC(=O)[C@H](CCCCN)NC(=O)[C@H](CC(C)C)NC(=O)[C@H](CC(C)C)NC(=O)CNC(=O)CCCCCCC)[C@@H](C)CC)[C@@H](C)O)NC(=O)[C@H](CC(C)C)NC(=O)[C@H](CC(C)C)NC(=O)[C@@H](NC(=O)[C@H](CCCCN)NC(=O)[C@@H](NC(=O)[C@H](CCCNC(=N)N)NC(=O)[C@H](CCCCN)NC(=O)[C@H](CC(C)C)NC(=O)[C@H](CC(C)C)NC(=O)CNC(=O)CCCCCCC)[C@@H](C)CC)[C@@H](C)O)C(N)=O)[C@@H](C)O)[C@@H](C)CC` (I: Octanoyl-GLLKRIKTLLKK-NH2 / II: Octanoyl-GLLKRIKTLL / III: Octanoyl-GLLKRIKTLL; amide I:11-III:C, I:12-II:C), for which the MIC was found to be 32 µM (≈ 130 µg/mL) with Escherichia coli; 32 µM (≈ 130 µg/mL) in the data set on Bacillus subtilis; 32 µM (≈ 130 µg/mL) with Pseudomonas aeruginosa; 32 µM (≈ 130 µg/mL) in the data set on Staphylococcus aureus; 128 µM (≈ 520 µg/mL) in the data set with Klebsiella pneumoniae.
